Reference: patent US20100137394A1, “PYRAZOLE INHIBITORS OF WNT SIGNALING” (Grenentech, Inc., priority 2007, published 2010)

Test system: Wnt pathway signaling
Test: Wnt Assay (Super8xTopflash reporter assay)
Type: cell-based
Conditions: 10T1/2 Super8xTopflash reporter cell line, Wnt3a in medium, luciferase signal read after 20-24 h; read-out: IC50, inhibition of Wnt pathway signaling activity
Protocol: 10T1/2 Super8xTopflash reporter cell line was generated by stable transfection of a Super8xTopflash reporter plasmid containing 8 tandem repeats of TCF4 binding sites upstream of Luciferase gene. Cells were seeded at 20 K/well density (in normal growth medium with 10% FBS and 0.4 mg/ml G418) in white 96-well plates with clear bottom (BD Falcon Microtest Optilux plate, Ref. 353947) and grown for 20-24 hours. Fesh growth medium was prepared without G418 and with appropriate Wnt3a concentration (concentration that gave 40-50% of maximum activation based on the dose-response curve performed for each new batch of protein; typically ˜0.1 ug/ml).
Old medium was removed from the 96-well plate, which was gently blotted on paper towel, then all relevant wells were replenished with fresh medium containing Wnt (100 ul/well).
The wells with highest compound concentrations (usually 10 or 30 uM) were filled separately with 150 ul of prepared medium containing both Wnt3a and the test compounds. Using a multichannel pipetman, 50 ul was drawn from these wells and dispensed and mixed gently into the next row of wells to achieve 1:3 dilution of compounds. […]
After 20-24 h the cells were lysed and the luciferase signal was read using Perkin Elmer luclite assay system, Cat. #6016911). […] Approximately 15 min later the plates were read on a TopCount machine.

- IC50: 218 nM
Structure (SMILES): COc1ccc(CC(=O)N2CCC(c3ccc(NS(C)(=O)=O)cc3)=N2)cc1OC [compound 12]
